Patent US10842878B2, “Degradation of Bruton's tyrosine kinase (BTK) by conjugation of BTK inhibitors with E3 ligase ligand and methods of use” (Dana-Farber Cancer Institute, Inc., priority 2016, dated 2020)

Molecular target: T1, BTK (Homo sapiens, UniProt Q06187)
T1 construct: protein lysate harvest and Western blotting analysis of BTK, Aurora A, and α-tubulin levels; endogenous in cells; host or cells: MOLM14 cells
Test: Cell assay and Western blotting analysis of BTK levels in MOLM14 cells
Assay type: cell-based
Conditions: MOLM14 cells treated with 40 nM, 200 nM, 1 μM for 4 or 12 hours (FIG. 1: 4 hours); DMSO control; Aurora A and α-tubulin also blotted
Protocol: MOLM14 cells were treated with DMSO or with 40 nM, 200 nM, 1 μM of a BTK bifunctional inhibitor compound of the disclosure for 4 or 12 hours, followed by protein lysate harvest and Western blotting analysis of BTK, Aurora A, and α-tubulin levels.
Cells are lysed using RIPA buffer supplemented with protease inhibitor cocktail (Roche) and phosSTOP phosphatase inhibitor cocktail (Roche) on ice for 15 minutes. The lysates are spun at 20,000×g for 15 minutes on 4° C. and protein concentration is determined using BCA assay (Pierce). The following primary antibodies are used in this study: BTK, GADPH, tubulin and Aurora A kinase (all from Cell Signaling Technology). Blots are imaged using fluorescence-labeled secondary antibodies (LI-COR) on the OdysseyCLxImager (LI-COR). Quantification of band intensities is performed using OdysseyCLx software (LI-COR).

T1 sequence (Q06187 whole entry): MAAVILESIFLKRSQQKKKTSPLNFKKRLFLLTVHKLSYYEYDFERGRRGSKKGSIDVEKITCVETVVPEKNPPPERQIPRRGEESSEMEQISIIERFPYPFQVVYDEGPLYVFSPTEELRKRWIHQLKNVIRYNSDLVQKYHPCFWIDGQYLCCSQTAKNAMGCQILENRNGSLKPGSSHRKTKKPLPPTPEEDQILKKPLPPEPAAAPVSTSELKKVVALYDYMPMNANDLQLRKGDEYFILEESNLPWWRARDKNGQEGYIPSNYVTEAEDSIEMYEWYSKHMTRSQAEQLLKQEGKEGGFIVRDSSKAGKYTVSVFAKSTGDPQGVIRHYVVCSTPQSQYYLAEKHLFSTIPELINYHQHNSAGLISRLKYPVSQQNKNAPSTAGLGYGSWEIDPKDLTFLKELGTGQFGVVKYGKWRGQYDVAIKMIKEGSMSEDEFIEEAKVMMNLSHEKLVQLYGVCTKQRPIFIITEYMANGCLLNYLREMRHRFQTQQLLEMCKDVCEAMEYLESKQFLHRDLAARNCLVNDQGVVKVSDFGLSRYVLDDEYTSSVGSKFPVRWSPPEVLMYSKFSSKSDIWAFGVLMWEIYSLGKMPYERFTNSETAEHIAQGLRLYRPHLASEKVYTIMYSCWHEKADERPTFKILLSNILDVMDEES

SMILES: Cc1c(NC(=O)c2ccc(C(C)(C)C)cc2)cccc1-c1cn(C)c(=O)c(Nc2ccc(C(=O)N3CCN(CCOCCOCCNC(=O)CNc4cccc5c4C(=O)N(C4CCC(=O)NC4=O)C5=O)CC3)cc2)n1 (stereo not shown) [Compound I-5, 4-(tert-butyl)-N-(3-(6-((4-(4-(2-(2-(2-(2-((2-(2,6-dioxopiperidin-3-yl)-1,3-dioxoisoindolin-4-yl)amino)acetamido)ethoxy)ethoxy)ethyl)piperazine-1-carbonyl)phenyl)amino)-4-methyl-5-oxo-4,5-dihydropyrazin-2-yl)-2-methylphenyl)benzamide]
- BTK degradation (Western blotting analysis of BTK levels): showed BTK degradation
